In patent US20060069132A1, “Azolecarboxamide herbicides” (priority 2004, published 2006):

What was measured:
barnyardgrass [1] = assay: Test A pre-/postemergence herbicide test; type: in vivo, Echinochloa crus-galli
Method in brief: (§1)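 Both application timings were run together: directed soil spray over freshly planted seeds in sandy loam, and runoff spray onto 2–10 cm seedlings. Evaluation after ~10 days in greenhouse used a 0–100 visual scale versus untreated controls.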

large crabgrass [2] = assay: Test A pre-/postemergence herbicide test; type: in vivo, Digitaria sanguinalis
Method in brief: as §1

giant foxtail [3] = assay: Test A pre-/postemergence herbicide test; type: in vivo, Setaria faberi
Method in brief: as §1

morningglory [4] = assay: Test A pre-/postemergence herbicide test; type: in vivo, Ipomoea spp.
Method in brief: as §1

redroot pigweed = assay: Test A pre-/postemergence herbicide test; type: in vivo, Amaranthus retroflexus
Method in brief: as §1

velvetleaf [5] = assay: Test A pre-/postemergence herbicide test; type: in vivo, Abutilon theophrasti
Method in brief: as §1

barnyardgrass [6] = assay: Test B pre-/postemergence herbicide test; type: in vivo, Echinochloa crus-galli; conditions: for Plant response rating, Barnyardgrass: preemergence; for Barnyardgrass plant response rating: postemergence, visual rating, scale 0 (no effect) to 100 (complete control)
Method in brief: (§2)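 Plants compared with untreated controls 13–15 days post-treatment and given a visual 0–100 injury score. Applications: preemergence to seeds; postemergence at 1- to 4-leaf (2–18 cm); paddy species flooded, 2-leaf stage. Vehicle non-phytotoxic, surfactant included.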

Surinam grass = assay: Test B pre-/postemergence herbicide test; type: in vivo, Urochloa decumbens; conditions: for Plant response rating, Surinam Grass: preemergence; for Surinam Grass plant response rating: postemergence, visual rating, scale 0 (no effect) to 100 (complete control)
Method in brief: (§3)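 Greenhouse pot assay with simultaneous preemergence (treated seed) and postemergence (2–18 cm seedlings) applications of surfactant-containing, non-phytotoxic solvent formulations. Response scored visually 13–15 days later on a 0–100 scale, 100 meaning complete control.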

cocklebur = assay: Test B pre-/postemergence herbicide test; type: in vivo, Xanthium strumarium; conditions: for Plant response rating, Cocklebur: preemergence; for Cocklebur plant response rating: postemergence, visual rating, scale 0 (no effect) to 100 (complete control)
Method in brief: as §2

corn = assay: Test B pre-/postemergence herbicide test; type: in vivo, Zea mays; conditions: preemergence
Method in brief: as §3

large crabgrass [7] = assay: Test B pre-/postemergence herbicide test; type: in vivo, Digitaria sanguinalis; conditions: for Plant response rating, Crabgrass, Large: preemergence; for Crabgrass, Large plant response rating: postemergence, visual rating, scale 0 (no effect) to 100 (complete control)
Method in brief: as §3

giant foxtail [8] = assay: Test B pre-/postemergence herbicide test; type: in vivo, Setaria faberi; conditions: for Plant response rating, Foxtail, Giant: preemergence; for Foxtail, Giant plant response rating: postemergence, visual rating, scale 0 (no effect) to 100 (complete control)
Method in brief: as §3

lambsquarters = assay: Test B pre-/postemergence herbicide test; type: in vivo, Chenopodium album; conditions: for Plant response rating, Lambsquarters: preemergence; for Lambsquarters plant response rating: postemergence, visual rating, scale 0 (no effect) to 100 (complete control)
Method in brief: as §3

morningglory [9] = assay: Test B pre-/postemergence herbicide test; type: in vivo, Ipomoea coccinea; conditions: preemergence, 125 g ai/ha; 0 to 100 scale, 0 is no effect, 100 is complete control
Method in brief: as §2

pigweed = assay: Test B pre-/postemergence herbicide test; type: in vivo, Amaranthus retroflexus; conditions: for Plant response rating, Pigweed: preemergence; for Pigweed plant response rating: postemergence, visual rating, scale 0 (no effect) to 100 (complete control)
Method in brief: as §3

rice [10] = assay: Test B pre-/postemergence herbicide test; type: in vivo, Oryza sativa; conditions: preemergence, 125 g ai/ha; 0 to 100 scale, 0 is no effect, 100 is complete control
Method in brief: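 Species tested were Echinochloa crus-galli, Ipomoea coccinea, Xanthium strumarium and Oryza sativa, treated both before emergence and at the 1- to 4-leaf stage; rice and barnyardgrass were also tested under flooding at 2 leaves. Greenhouse incubation lasted 13–15 days before visual 0–100 scoring.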

velvetleaf [11] = assay: Test B pre-/postemergence herbicide test; type: in vivo, Abutilon theophrasti; conditions: for Plant response rating, Velvetleaf: preemergence; for Velvetleaf plant response rating: postemergence, visual rating, scale 0 (no effect) to 100 (complete control)
Method in brief: as §3

blackgrass = assay: Test B postemergence herbicide test; type: in vivo, Alopecurus myosuroides; conditions: postemergence, visual rating, scale 0 (no effect) to 100 (complete control)
Method in brief: (§4)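 Formulated test chemicals went onto postemergence plants measuring 2 to 18 cm, at one to four leaves. For the paddy assay, species had reached two leaves. Scoring took place 13–15 days later by eye, relative to untreated plants, using 0 for no effect up to 100 for full control.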

wheat = assay: Test B postemergence herbicide test; type: in vivo, Triticum aestivum; design: key to Wheat plant response rating: 0 = no effect, 100 = complete control; conditions: postemergence, visual rating, scale 0 (no effect) to 100 (complete control)
Method in brief: (§5)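 Plants grow to 1- to 4-leaf stage (2–18 cm) for postemergence spraying, or to 2-leaf stage for the paddy test. Formulated compound is applied. Greenhouse holding lasts 13–15 days. Response is scored visually relative to controls, 0 no effect to 100 complete control; a dash means no result.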

wild oat = assay: Test B postemergence herbicide test; type: in vivo, Avena fatua; conditions: postemergence, visual rating, scale 0 (no effect) to 100 (complete control)
Method in brief: as §5

rice [12] = assay: Test B flooded paddy test; type: in vivo, Oryza sativa; conditions: 1000 g ai/ha, visual rating, scale 0 to 100 (0 no effect, 100 complete control), 13 to 15 days
Method in brief: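 Greenhouse test; postemergence application to plants at 1–4 leaves (2–18 cm); paddy species at 2 leaves; evaluated visually vs controls at 13–15 days; scale 0–100 (100 = complete control).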

[13] = system: small flower umbrella sedge; assay: Test B flooded paddy test; type: in vivo, Cyperus difformis; conditions: 1000 g ai/ha, visual rating, scale 0 to 100 (0 no effect, 100 complete control), 13 to 15 days
Method in brief: as §4

ducksalad = assay: Test B flooded paddy test; type: in vivo, Heteranthera limosa; conditions: 1000 g ai/ha, visual rating, scale 0 to 100 (0 no effect, 100 complete control), 13 to 15 days
Method in brief: as §4

barnyardgrass [14] = assay: Test B flooded paddy test; type: in vivo, Echinochloa crus-galli; conditions: 1000 g ai/ha, visual rating, scale 0 to 100 (0 no effect, 100 complete control), 13 to 15 days
Method in brief: as §4

[15] = Postemergence, 500 g ai/ha, 0 to 100 scale, 0 no effect, 100 complete control
[16] = Postemergence, 2000 g ai/ha, 0 to 100 scale, 0 no effect, 100 complete control
[17] = Preemergence, 500 g ai/ha, visual rating, 0 to 100 scale (0 no effect, 100 complete control)
[18] = Preemergence, 2000 g ai/ha, visual rating, 0 to 100 scale (0 no effect, 100 complete control)
[19] = preemergence, 500 g ai/ha, visual injury, 0 to 100 scale (0 no effect, 100 complete control)
[20] = 500 g ai/ha, visual rating 0-100, 0 no effect, 100 complete control
[21] = 125 g ai/ha, 0 to 100 scale, 0 is no effect, 100 is complete control

## CCC(C)c1cc(C(=O)Nc2cccc(C(C)=NO)c2)n(C)n1 (stereo not shown) [Compound 120]
Barnyardgrass [1]; [15]
  Barnyardgrass plant response rating: 45
Barnyardgrass [1]; [16]
  Plant response rating, Barnyardgrass: 65
Barnyardgrass [1]; [17]
  Barnyardgrass plant response rating: 30
Barnyardgrass [1]; [18]
  Barnyardgrass plant response rating: 85
Large crabgrass [2]; [15]
  Crabgrass, Large plant response rating: 50
Large crabgrass [2]; [16]
  Plant response rating, Crabgrass, Large: 65
Large crabgrass [2]; [17]
  Crabgrass, Large plant response rating: 45
Large crabgrass [2]; [18]
  Crabgrass, Large plant response rating: 75
Giant foxtail [3]; [15]
  Foxtail, Giant plant response rating: 20
Giant foxtail [3]; [16]
  Plant response rating, Foxtail, Giant: 20
Giant foxtail [3]; [17]
  Foxtail, Giant plant response rating: 25
Giant foxtail [3]; [18]
  Foxtail, Giant plant response rating: 55
Morningglory [4]; [15]
  Morningglory plant response rating: 20
Morningglory [4]; [16]
  Plant response rating, Morningglory: 40
Morningglory [4]; [17]
  Morningglory plant response rating: 20
Morningglory [4]; [18]
  Morningglory plant response rating: 55
Redroot pigweed; [15]
  Pigweed plant response rating: 50
Redroot pigweed; [16]
  Plant response rating, Pigweed: 85
Redroot pigweed; [18]
  Pigweed plant response rating: 50
Redroot pigweed; [19]
  Pigweed plant response rating: 20
Velvetleaf [5]; [15]
  Velvetleaf plant response rating: 25
Velvetleaf [5]; [16]
  Plant response rating, Velvetleaf: 30
Velvetleaf [5]; [18]
  Velvetleaf plant response rating: 40
Velvetleaf [5]; [19]
  Velvetleaf plant response rating: 20
Barnyardgrass [6]; [20]
  Plant response rating, Barnyardgrass: 90
Barnyardgrass [6]; 125 g ai/ha
  Barnyardgrass plant response rating: 10
Barnyardgrass [6]; 500 g ai/ha
  Barnyardgrass plant response rating: 10
Barnyardgrass [6]; [21]
  Plant response rating, Barnyardgrass: 0
Surinam grass; [20]
  Plant response rating, Surinam Grass: 0
Surinam grass; 125 g ai/ha
  Surinam Grass plant response rating: 20
Surinam grass; 500 g ai/ha
  Surinam Grass plant response rating: 50
Surinam grass; [21]
  Plant response rating, Surinam Grass: 0
cocklebur; [20]
  Plant response rating, Cocklebur: 0
cocklebur; 125 g ai/ha
  Cocklebur plant response rating: 30
cocklebur; 500 g ai/ha
  Cocklebur plant response rating: 60
cocklebur; [21]
  Plant response rating, Cocklebur: 0
corn; [20]
  Plant response rating, Corn: 0
corn; [21]
  Plant response rating, Corn: 0
Large crabgrass [7]; [20]
  Plant response rating, Crabgrass, Large: 90
Large crabgrass [7]; 125 g ai/ha
  Crabgrass, Large plant response rating: 10
Large crabgrass [7]; 500 g ai/ha
  Crabgrass, Large plant response rating: 20
Large crabgrass [7]; [21]
  Plant response rating, Crabgrass, Large: 70
Giant foxtail [8]; [20]
  Plant response rating, Foxtail, Giant: 70
Giant foxtail [8]; 125 g ai/ha
  Foxtail, Giant plant response rating: 10
Giant foxtail [8]; 500 g ai/ha
  Foxtail, Giant plant response rating: 10
Giant foxtail [8]; [21]
  Plant response rating, Foxtail, Giant: 0
lambsquarters; [20]
  Plant response rating, Lambsquarters: 20
lambsquarters; 125 g ai/ha
  Lambsquarters plant response rating: 0
lambsquarters; 500 g ai/ha
  Lambsquarters plant response rating: 50
lambsquarters; [21]
  Plant response rating, Lambsquarters: 0
Morningglory [9]
  Plant response rating, Morningglory: 10
pigweed; [20]
  Plant response rating, Pigweed: 30
pigweed; 125 g ai/ha
  Pigweed plant response rating: 10
pigweed; 500 g ai/ha
  Pigweed plant response rating: 70
pigweed; [21]
  Plant response rating, Pigweed: 0
Rice [10]
  Plant response rating, Rice: 0
Velvetleaf [11]; [20]
  Plant response rating, Velvetleaf: 40
Velvetleaf [11]; 125 g ai/ha
  Velvetleaf plant response rating: 10
Velvetleaf [11]; 500 g ai/ha
  Velvetleaf plant response rating: 30
Velvetleaf [11]; [21]
  Plant response rating, Velvetleaf: 20
blackgrass; 125 g ai/ha
  Blackgrass plant response rating: 0
blackgrass; 500 g ai/ha
  Blackgrass plant response rating: 10
wheat; 125 g ai/ha
  Wheat plant response rating: 10
wheat; 500 g ai/ha
  Wheat plant response rating: 10
Wild oat; 125 g ai/ha
  Oat, Wild plant response rating: 10
Wild oat; 500 g ai/ha
  Oat, Wild plant response rating: 10
Rice [12]
  Rice plant response rating: 0
[13]
  Sedge, Umbrella plant response rating: 10
ducksalad
  Ducksalad plant response rating: 70
Barnyardgrass [14]
  Barnyardgrass plant response rating: 30
